Reference: patent US11130743B2, “Heterocyclic ligands of PAR1 and methods of use” (Marquette University, priority 2019, dated 2021)
In brackets after ≈: the same amount, converted by molar mass.

Assays:
PAR1 [1] = biological target: T1, PAR1 (Homo sapiens, UniProt P25116); experiment: PAR1 (TFLLRN-NH2)-driven intracellular calcium mobilization (iCa2+) assay with Ea.hy926 cells; type: cell-based; conditions: for inhibition at 10 µM: EA.hy 926, 10 μM compound, 5 μM TFLLRN-NH2, adherent EA.hy926 endothelial cells, n=4 wells, ± SEM, read-out: iCa2+ assay % Inhib; for IC50 / iCa2+ assay pIC50: 5 μM TFLLRN-NH2, EA.hy926 cells, curves fitted to 3 wells per concentration; for IC50: read-out: iCa2+ assay pIC50 (converted)
T1 construct: endogenous in cells; host or cells: EA.hy926 endothelial cells
T1 sequence (P25116 22-425): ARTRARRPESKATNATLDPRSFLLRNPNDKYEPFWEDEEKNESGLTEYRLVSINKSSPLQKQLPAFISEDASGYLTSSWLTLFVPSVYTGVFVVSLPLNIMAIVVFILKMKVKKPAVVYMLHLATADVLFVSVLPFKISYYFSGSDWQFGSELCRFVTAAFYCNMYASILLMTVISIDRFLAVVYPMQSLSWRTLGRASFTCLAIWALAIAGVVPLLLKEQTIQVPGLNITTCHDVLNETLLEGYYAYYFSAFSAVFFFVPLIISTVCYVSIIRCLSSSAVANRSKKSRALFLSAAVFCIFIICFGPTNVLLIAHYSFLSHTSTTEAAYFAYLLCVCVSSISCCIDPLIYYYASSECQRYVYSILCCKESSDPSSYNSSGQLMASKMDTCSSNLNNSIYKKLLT
Protocol: FIGS. 1A-1D depicts concentration-response curves for PAR1 antagonists in the TFLLRN-NH2-mediated (5 μM) intracellular calcium mobilization (iCa^2+) assay with Ea.hy926 cells: A) 35 (VAK-7), B) 39 (NRD-23), C) 9 (NRD-25), D) 38 (NRD-21). Cells were loaded with the calcium-binding dye Fluo-4/AM, and changes in calcium concentration were measured with a plate reader.
Our interest in measuring the effects of parmodulins in endothelial cells led us to develop a protocol for an […] calcium mobilization (iCa^2+) assay using adherent Ea.hy926 cells in 96 well plates.^24 This assay also offers higher throughput and lower variability than the platelet P-selectin assay, so we have utilized it as our primary assay for our ongoing studies. Compounds were screened in 96 well plates at a concentration of 10 μM, using the PAR1 tethered ligand peptide TFLLRN (5 μM) as agonist.
The intracellular calcium mobilization assay was performed with Ea.hy926 cells according to our published protocol (Bioorg. Med. Chem. 2018, 9, 2514-2529), using TFLLRN-NH2 as PAR1 agonist.
^aAssays were performed with adherent EA.hy926 endothelial cells. % Inhibition was measured at 10 μM with 5 μM TFLLRN-NH2 and n=4 wells, unless otherwise noted, with standard error of the mean (SEM) provided. pIC50s (-logIC50S) were estimated from curves fitted to measurements on 3 separate wells for each concentration, using 4-variable non-linear regression in GraphPad Prism v.6.

human washed platelets = experiment: human platelet aggregation assay with PAR1/2 agonist SFLLRN-NH2; type: cell-based; conditions: parmodulins at 10 μM, SFLLRN-NH2 (5 μM)
Protocol: FIGS. 5A-5B depicts results of a human platelet aggregation assay of A) ML161 (10 μM, red trace) and B) NRD-21 (10 μM, red trace) in the presence of the PAR1/2 agonist SFLLRN-NH2 ([…]). Blue traces=DMSO.
Next, an assay was performed to measure the ability of NRD-21 to inhibit platelet aggregation. PAR1 is highly expressed in platelets, and its activation leads to aggregation and coagulation. The platelet aggregation assay was performed with ML161 and NRD-21. In both cases, human washed platelets were incubated with parmodulins at 10 μM, then the PAR1/2 agonist SFLLRN-NH2 (5 μM) was added. (FIG. 5).

[2] = tested on: tissue factor (TF) expression; experiment: qPCR assay of TNF-α induced tissue factor (TF) expression in HUVEC; type: cell-based, human; conditions: 10 μM inhibitor, TNF-α 25 ng/mL, mRNA at 4 h
Protocol: FIG. 6 is a graph depicting results of a qPCR assay (n=3) measuring the inhibition of TNF-α (25 ng/mL) induced tissue factor (TF) expression in HUVEC after treatment with ML161 and NRD-21 (10 μM). Inhibitors were added at t=0, TNF-α was added at t=1 h, and mRNA was measured at t=4 h.
To this end, we performed a qPCR assay measuring the expression of tissue factor (TF) in endothelial cells (HUVEC) in response to the inflammatory cytokine Tumor Necrosis Factor-alpha (TNF-α). TF has been long established to mediate the pro-inflammatory and pro-coagulant effects^27 of TNF-α^28,29 and endotoxins,^30 and unnatural TF expression is therefore the driver of disseminated intravascular coagulation (DIC) observed under conditions of cancer or sepsis.^31 We measured the level of TF mRNA 4 h after treatment with ML161 or NRD-21 followed by the addition of TNF-α (FIG. 6).

mouse plasma stability = type: in vitro ADME; conditions: after 4 h in mouse plasma
Protocol: The term “plasma stability” as used herein refers to the ability of the compound to remain intact after incubation with plasma, for example, mouse plasma or human plasma, after a certain period of time. For example, the compounds of the present invention (e.g., compounds of formula I) have a greater half-life for plasma stability than prior compounds (for example, greater half-life stability than ML161). Methods of determining the plasma stability of the compounds are known in the art. For example, one can measure the amount of compound remaining by HPLC after a 4 h incubation in plasma, or if multiple time points are taken, a half-life for plasma stability can be calculated. As described in the Examples and Table 5, the % compound remaining after 4 h-incubation in mouse plasma is substantially better than the compounds of the prior art (e.g., ML161). For example, increased plasma stability can be at least 20% of the compound remains after 4 hour incubation in plasma, alternatively at least 30% of the compound remains after 4 hour incubation in plasma.
We measured its stability and a number of parameters relevant to its use as an in vivo probe (Table 5, FIG. 7). Importantly, NRD-21 is much more plasma stable than ML161. After 4 h in mouse plasma, 32% of NRD-21 remained, while ML161 was less than 1%.

human plasma stability = type: in vitro ADME; conditions: after 4 h in human plasma
Excerpt: FIG. 8. Human plasma stability of ML161 (left) and NRD-21 (right). Points indicate the natural logarithm of the average concentration of compound remaining, with 3 replicates at each time point.

[3] = stability in human liver microsomes; type: in vitro ADME; conditions: 1 h
hepG2 = experiment: toxicity in a human cell line (hepG2); type: cell-based
[4] = kinetic aqueous solubility assay; type: physicochemical; conditions: aqueous solution with 2.5% DMSO
[5] = biological target: T2, peripheral benzodiazepine receptor (PBR) (Rattus norvegicus, UniProt P16257); experiment: PDSP off-target radioligand binding, PBR; conditions: PDSP profiling
T2 construct: Psychoactive Drug Screening Program (PDSP)

[6] = biological target: T3, serotonin transporter (SERT) (Homo sapiens, UniProt P31645); experiment: PDSP off-target radioligand binding, SERT
T3 construct: Psychoactive Drug Screening Program (PDSP)

PAR1 [7] = biological target: T1, PAR1; conditions: from reference 24; cited from earlier work
[8] = species not stated in b8; mouse plasma; reference 20; cited from earlier work
[9] = tested on: necrosis of coronary tissue; conditions: mouse MI model, reference 23; cited from earlier work

T3 sequence (P31645 whole entry, species assumed): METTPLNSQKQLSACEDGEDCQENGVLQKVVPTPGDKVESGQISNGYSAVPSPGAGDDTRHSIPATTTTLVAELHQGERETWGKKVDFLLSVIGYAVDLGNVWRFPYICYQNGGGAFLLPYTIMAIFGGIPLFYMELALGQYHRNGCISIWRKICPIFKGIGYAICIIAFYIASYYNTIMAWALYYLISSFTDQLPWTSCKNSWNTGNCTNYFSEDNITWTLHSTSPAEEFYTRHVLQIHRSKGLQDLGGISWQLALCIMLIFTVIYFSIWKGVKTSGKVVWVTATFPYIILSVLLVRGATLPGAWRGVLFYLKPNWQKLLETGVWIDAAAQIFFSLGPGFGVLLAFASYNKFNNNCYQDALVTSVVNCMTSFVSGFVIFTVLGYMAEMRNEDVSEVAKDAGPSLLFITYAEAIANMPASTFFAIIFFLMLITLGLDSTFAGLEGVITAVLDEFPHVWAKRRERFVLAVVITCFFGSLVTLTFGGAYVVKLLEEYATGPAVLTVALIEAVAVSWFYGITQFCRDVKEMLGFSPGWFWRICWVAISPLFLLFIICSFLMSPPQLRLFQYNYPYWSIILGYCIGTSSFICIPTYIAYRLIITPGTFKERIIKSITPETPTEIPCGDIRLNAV

O=C(Nc1cccc(NC(=O)C2CCCO2)c1)c1ccccc1Br (centres unmarked) [Compound 10, N-[3-(2-bromobenzamido)phenyl]oxolane-2-carboxamide] showed an inhibition at 10 µM (PAR1 [1]) of 42 ± 3%.
Compound O=C(Nc1cccc(NC(=O)c2ccccc2Br)c1)c1cncs1 [Compound 8, N-[3-(2-bromobenzamido)phenyl]-1,3-thiazole-5-carboxamide] has an IC50 (PAR1 [1]) of 0.0933 µM and an inhibition at 10 µM (PAR1 [1]) of 56 ± 6%.
In the case of O=C(Nc1cccc(NC(=O)c2ccccc2Br)c1)c1cnco1 [Compound 5, N-[3-(2-bromobenzamido)phenyl]-1,3-oxazole-5-carboxamide], the “mode of action at PAR1” value (PAR1 [1]) is reported as “selective negative allosteric modulator of PAR1”, the “iCa2+ assay pIC50” value (PAR1 [1]) is reported as 6.3 ± 0.1 and the inhibition at 10 µM (PAR1 [1]) is reported as 59 ± 13%. The “inhibition of platelet aggregation” value (human washed platelets) was “Complete inhibition of platelet aggregation”, the “TF mRNA level after TNF-α” value [2] was “dropping TF RNA levels to below baseline levels” and the “% compound remaining in mouse plasma” value (mouse plasma stability) was 32%. The “% compound remaining in human plasma” value (human plasma stability) was 97%, the “stability in the presence of human liver microsomes” value [3] was “no apparent degradation after 1 h” and the “toxicity in hepG2” value (hepG2) was “no measurable toxicity”. For the same compound, the solubility [4] was 17 µM (≈ 6.57 µg/mL), the “effect on radioligand binding to PBR” value [5] was “inhibition of binding” and the “effect on SERT in radioligand binding profiling” value [6] was “activation”.
For CCCC(=O)Nc1cccc(NC(=O)c2ccccc2Br)c1 [ML161, reference compound], the “inhibition of platelet aggregation” value (human washed platelets) was “Complete inhibition of platelet aggregation”, the “TF mRNA level after TNF-α” value [2] was “blocked the ˜3-fold increase in TF expression” and the “% compound remaining in mouse plasma” value (mouse plasma stability) was “less than 1%”. For the same compound, the “% compound remaining in human plasma” value (human plasma stability) was 79%, the “stability in the presence of human liver microsomes” value [3] was “excellent stability” and the “effect on radioligand binding to PBR” value [5] was “inhibition of binding”. The “effect on SERT in radioligand binding profiling” value [6] was “activation”, the “mode of action at PAR1 signaling via Gq” value (PAR1 [7]) was “selective, reversible, and allosteric inhibitors (negative allosteric modulators)” and the stability in plasma [8] was “low stability in plasma”. For the same compound, the “minimizing necrosis of coronary tissue” value [9] was “highly effective at minimizing necrosis of coronary tissue”.
In the case of O=C(Nc1cccc(NC(=O)C2CCOC2)c1)c1ccccc1Br (centres unmarked) [Compound 11, N-[3-(2-bromobenzamido)phenyl]oxolane-3-carboxamide], the inhibition at 10 µM (PAR1 [1]) is reported as 44 ± 2%.
For O=C(Nc1cccc(NC(=O)c2ccccc2Cl)c1)c1cnco1 [Compound 7, N-[3-(2-chlorobenzamido)phenyl]-1,3-oxazole-5-carboxamide], the IC50 (PAR1 [1]) was 0.398 µM and the inhibition at 10 µM (PAR1 [1]) was 66 ± 13%.
Work on O=C(Nc1cccc(NC(=O)c2ccccc2Br)c1)c1ccoc1 [Compound 9, N-[3-(2-bromobenzamido)phenyl]furan-3-carboxamide] yielded an IC50 (PAR1 [1]) of 0.0407 µM and an inhibition at 10 µM (PAR1 [1]) of 97 ± 13%.
For O=C(Nc1cccc(NC(=O)c2ccccc2Br)c1)c1cocn1 [Compound 6, N-[3-(2-bromobenzamido)phenyl]-1,3-oxazole-4-carboxamide], the “iCa2+ assay pIC50” value (PAR1 [1]) was 6.4 ± 0.1 and the inhibition at 10 µM (PAR1 [1]) was 82 ± 1%.
